What was measured:
[1] = international clinical trials, safety; assay type: in vivo, human; conditions: more than 500 patients exposed, dexanabinol CREMOPHOR EL:ethanol product
From the text: A Safety Committee appointed to monitor patient data to ensure patient safety analyzed patients' data after the enrollment and in all cases the safety committee found the drug safe.

[2] = test system: inflammatory bowel disease (IBD) model; experiment: IBD induced by rectal 5% acetic acid solution; assay type: in vivo, Sprague Dawley male rats
Protocol: The pharmacological activity of dexanabinol of high enantiomeric purity in enema formulation was also tested and compared to oral and i.p. formulations, wherein oral delivery was performed using a hard gelatin capsule and i.p. delivery was performed using the CREMOPHOR EL®:ethanol formulation. IBD was induced in Sprague Dawley male rats, by rectal administration of a 5% acetic acid solution. The rectum was then washed with saline and animals were clinically observed (body weight, stool consistency and blood in stool) daily for 7 days. On the eighth day, the animals were sacrificed, their colon opened and gross pathology lesions were recorded (hyperemia, edema, number of erosions, ulcers, perforations and adhesions). Animals, at least six per group, were treated rectally (by enema) with either dexanabinol (5, 10, 20 or 40 mg/kg/day) or its vehicle or by oral gavage (20, 40, or 80 mg/kg/day or vehicle). Administration of acetic acid caused a decrease in body weight (up to 20%), changes in stool consistency (diarrhea) and appearance of blood in the stool 24 hours later. Spontaneous clinical healing was detected as animals regained weight and blood was no more evident in the stool. In the gross pathology scale, rectal dexanabinol 10 mg/kg had the best effect (more than 50% reduction of score) compared to its vehicle (p<0.05). […] The rectal dexanabinol dose of 10 mg/kg was pharmacologically equivalent to 20 mg/kg i.p. dose and 80 mg/kg oral dose.

[3] = ocular toxicity, topical instillation for five days four times daily; assay type: in vivo, rabbits; conditions: dexanabinol in SME, slit lamp
Protocol: Ocular toxicity was tested as follows. Two groups of five animals each received topical instillation of dexanabinol in SME and blank SME for five days four times daily. The animals were examined daily with a slit lamp for ocular discharge, conjunctival hyperemia, corneal fluorescein staining and iris hyperemia. Results were scored on a 0.0-4.0 scale in 0.5 steps.

[4] = 14-day multiple dose pharmacokinetic/toxicity study, rat; assay type: in vivo, rats; conditions: for AUC∞ Ratio to Phase I / Cmax Ratio to Phase I / AUC∞ Ratio to Phase II / Cmax Ratio to Phase II: 15 mg/kg Day 14; for AUC∞ Ratio to Phase I / Cmax Ratio to Phase I: vs human 150 mg Phase I; for AUC∞ Ratio to Phase II / Cmax Ratio to Phase II: vs human 150 mg Phase II
Protocol: (§1) The pharmacokinetics of dexanabinol of high enantiomeric purity formulated in CREMOPHOR EL®:ethanol as described in Example 4 were investigated in rats, rabbits, and monkeys following intravenous administration of single doses, and 14 and 28 days of repeated dosing. Human pharmacokinetics was studied during Phase I and Phase II clinical studies. Dexanabinol used in the pharmacokinetic studies was formulated as drug concentrates of 50 and 100 mg/ml and diluted with sterile 0.9% NaCl solution prior to intravenous (i.v.) administration to the desired final doses. Determination of dexanabinol concentrations in plasma and brain extracts was carried out using a validated Gas Chromatography-Mass Spectra (GC-MS) assay following solid phase extraction of the drug and derivatization. The limit of quantitation of the assay is 0.1 ng/ml.
Pharmacokinetic parameters were estimated by a non-compartmental method using WinNonlin Professional version 3.2 (Pharsight Corp., Mountain View, Calif.). The maximum plasma concentration (Cmax), when the drug is administered by infusion, is the concentration at the end of infusion. The Cmax following intravenous bolus administration is the value estimated by the software to be the concentration at t=0. The terminal slope (X) was estimated by linear regression through the last time points and used to calculate the terminal half-life (t1/2) from the following equation: t1/2=0.693/λ The area under the curve from time of dosing through the last time point (AUCz) was calculated by the linear trapezoid method. The AUC extrapolated to infinity (AUC∞) was calculated from the following equation: AUC∞=AUCz+Cz/λ where Cz is the concentration at the last time point predicted by the linear regression. AUC∞ was normalized for dose (mg/kg) and presented as AUC∞/Dose. Mean residence time (MRT), when the drug is administered by infusion is described by the following equation: MRT=(AUMC/AUC)−(TI)/2 Mean residence time after i.v. bolus administration is described by the following equation: MRT=(AUMC/AUC) where AUMC is the area under the first moment curve and TI is the length of infusion. Plasma clearance (CL), and the apparent volume of distribution at steady state (Vss) were calculated from the following equations: CL=Dose/AUC∞ Vss=MRT×CL
In 14-day multiple dose pharmacokinetic studies, the NOAEL was 15 mg/kg/day in rats and 25 mg/kg/day in rabbits. In a 28-day study in monkeys the NOAEL was 25 mg/kg/day. Cmax and AUC observed following the last dose at the NOAEL in the multiple dose toxicity studies and the ratios of these values to those observed in the Phase I and II studies for the 150 mg dose are shown in Table 7.

[5] = plasma and brain concentrations after bolus i.v. 4 mg/kg; assay type: in vivo, Sprague Dawley rats
Protocol: as §1
Brain pharmacokinetic parameters in animal studies were estimated by non-compartmental methods similar to those used for plasma data with the addition of an estimate of the time of maximum concentration (Tmax) which was assumed to be zero for the plasma data. Cmax is the concentration corresponding to Tmax. AUCz and AUC∞ were calculated as described above. Kp, brain-to-plasma partition coefficient, was determined by means of the area method and using the equation: Kp=AUC∞ brain/AUC∞ plasma […]

[6] = plasma, iv, rat female, 15 mg/kg i.v. daily, final dose Day 14 (NOAEL)
[7] = plasma, iv, rat male, 15 mg/kg i.v. daily, final dose Day 14 (NOAEL)

CCCCCCC(C)(C)c1cc(O)c2c(c1)OC(C)(C)[C@H]1CC=C(CO)C[C@H]21 [dexanabinol, 1,1-dimethylheptyl-(3S,4S)-7-hydroxy-Δ^6-tetrahydrocannabinol]
serious adverse reactions [1]: no serious adverse reactions were reported | i.p. dose pharmacologically equivalent to rectal dose of 10 mg/kg ([2]; i.p., CREMOPHOR EL:ethanol formulation): 20 mg/kg | oral dose pharmacologically equivalent to rectal dose of 10 mg/kg ([2]; oral): 80 mg/kg | clinical disease severity compared to the vehicle ([2]; rectal 10 mg/kg): reduced also the clinical disease severity | reduction of gross pathology score compared to vehicle ([2]; rectal (enema) 10 mg/kg, p<0.05): more than 50% | conjunctival injection and discharge [3]: mild conjunctival injection and discharge that did not significantly differ from SME-blank treated animals | corneal staining, corneal opacities and iris hyperemia [3]: did not occur in any of the animals | AUC(0-inf) [4, 6]: 58.6 µg·h/mL | Cmax at 14 days [4, 6]: 17.4 µg/mL | AUC(0-inf) [4, 7]: 32.7 µg·h/mL | Cmax [4, 7]: 30.2 µg/mL | AUC∞ Ratio to Phase I ([4]; rat female): 18.3 | Cmax Ratio to Phase I ([4]; rat female): 3.5 | AUC∞ Ratio to Phase II ([4]; rat female): 39.5 | Cmax Ratio to Phase II ([4]; rat female): 8.8 | AUC∞ Ratio to Phase I ([4]; rat male): 10.2 | Cmax Ratio to Phase I ([4]; rat male): 6.0 | AUC∞ Ratio to Phase II ([4]; rat male): 22.1 | Cmax Ratio to Phase II ([4]; rat male): 15.4 | NOAEL at 14 days ([4]; rat, in vivo, iv, 14-day multiple dose i.v.): 15 mg/kg/day | time after injection at which brain concentrations equilibrated with plasma concentration ([5]; male and female averaged): about 30 minutes | differences between genders in some plasma pharmacokinetic parameters ([5]; plasma): 2-3 fold
